Measured values reported in patent publication US6660870B1, “2-acylaminobenzimidazole derivatives for treating glaucoma” (Alcon, Inc., priority 2000, dated 2003).

Tests used:
brain 5-HT2 receptors = brain 5-HT2 receptors (Rattus norvegicus, UniProt P14842); assay: 5-HT2 Receptor Binding Assay ([125I]DOI competition); details: competition for [125I]DOI binding, post mortem rat or human cerebral cortex homogenates
Description: 5-HT2 Receptor Binding Assay
Aliquots of post mortem rat or human cerebral cortex homogenates (400 μl) dispersed in 50 mM TrisHCl buffer (pH 7.4) are incubated with [^125I]DOI (80 pM final) in the absence or presence of methiothepin (10 μM final) to define total and non-specific binding, respectively, in a total volume of 0.5 ml. The assay mixture is incubated for 1 hour at 23° C. in polypropylene tubes and the assays terminated by rapid vacuum filtration over Whatman GF/B glass fiber filters previously soaked in 0.3% polyethyleneimine using ice-cold buffer. Test compounds (at different concentrations) are substituted for methiothepin. Filter-bound radioactivity is determined by scintillation spectrometry on a beta counter. The data are analyzed using a non-linear. iterative curve-fitting computer program [Trends Pharmacol. Sci., 16, 413 (1995)] to determine the compound affinity parameter. The concentration of the compound needed to inhibit the [^125I]DOI binding by 50% of the maximum is termed the IC50 […].

5-HT2 receptor = biological target: T1, 5-HT2 receptor (Rattus norvegicus, UniProt P14842); assay: 5-HT2 Functional Assay: Phosphoinositide (PI) Turnover Assay; type: cell-based; details: for EC50: [3H]inositol phosphate production in A7r5 rat vascular smooth muscle cells
T1 construct: A7r5 rat vascular smooth muscle cells; endogenous in cells; host or cells: A7r5 rat vascular smooth muscle cells
T1 sequence (P14842 whole entry): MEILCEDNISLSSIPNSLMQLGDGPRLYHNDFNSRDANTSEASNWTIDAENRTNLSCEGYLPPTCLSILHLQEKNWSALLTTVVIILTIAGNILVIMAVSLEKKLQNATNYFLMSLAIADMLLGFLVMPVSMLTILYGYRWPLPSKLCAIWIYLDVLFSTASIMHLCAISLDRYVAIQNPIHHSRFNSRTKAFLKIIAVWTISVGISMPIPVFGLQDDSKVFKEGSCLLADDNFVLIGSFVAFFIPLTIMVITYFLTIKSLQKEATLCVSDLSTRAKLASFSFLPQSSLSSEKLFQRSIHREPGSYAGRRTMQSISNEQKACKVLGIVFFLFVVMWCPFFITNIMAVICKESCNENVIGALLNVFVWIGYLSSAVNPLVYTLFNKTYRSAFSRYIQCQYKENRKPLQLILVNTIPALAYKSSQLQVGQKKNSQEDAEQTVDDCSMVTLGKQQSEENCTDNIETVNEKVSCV
Description: 5-HT2 Functional Assay: Phosphoinositide (PI) Turnover Assay
The relative agonist activity of serotonergic compounds at the 5-HT2 receptor can be determined in vitro using the ability of the compounds to stimulate the production of [^3H]inositol phosphates in [^3H]myo-inositol-labeled A7r5 rat vascular smooth muscle cells by their ability to activate the enzyme phospholipase C. These cells are grown in culture plates, maintained in a humidified atmosphere of 5% CO2 and 95% air and fed semi-weekly with Dulbecco's modified Eagle medium (DMEM) containing 4.5 g/l glucose and supplemented with 2 mM glutamine, 10 μg/ml gentamicin, and 10% fetal bovine serum. For the purpose of conducting the phosphoinositide (PI) turnover experiments, the A7r5 cells are cultured in 24-well plates as previously [J. Pharmacol. Expt. Ther., 286, 411 (1998)]. Confluent cells are exposed for 24-30 hrs to 1.5 μCi [^3H]-myo-inositol (18.3 Ci/mmol) in 0.5 ml of serum-free medium. Cells are then rinsed once with DMEM/F-12 containing 10 mM LiCl prior to incubation with the test agent (or solvent as the control) in 1.0 ml of the same medium for 1 hr at 37° C., after which the medium is aspirated and 1 ml of cold 0.1 M formic acid added to stop the reaction. The chromatographic separation of [^3H]-inositol phosphates ([^3H]-IPs) on an AG-1-X8 column is performed as previously described [J. Pharmacol. Expt. […] The eluate (4 ml) is collected, mixed with 15 ml scintillation fluid, and the total [^3H]-IPs determined by scintillation counting on a beta-counter. Concentration-response data are analyzed by the sigmoidal fit function of the Origin Scientific Graphics software (Microcal Software, Northampton, Mass.) to determine agonist potency (EC50 value) and efficacy (Emax). Serotonin (5-HT) is used as a positive control (standard) agonist compound and the efficacy of test compounds is compared to that of 5-HT (set at 100%).

Chain of brain 5-HT2 receptors (P14842 whole entry): as above

SMILES | IC50 (brain 5-HT2 receptors) | EC50 (5-HT2 receptor) | Emax (5-HT2 receptor; A7R5, read-out: Efficacy (Emax, %))
COc1cc(C[C@@H](C)N)c(OC)cc1I [(R)-DOI] | 0.46 nM | 277 nM | 
Cc1ccc(C(=O)Nc2nc3ccccc3n2CCN(C)C)cc1 [Example 1, 1-(N,N-Dimethylaminoethyl)-2-(4-methylbenzamido)benzimidazole] |  | 404 nM | 35%
